According to PubChem BioAssay (NCI):
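Compound exposure: 48 hours, 5 concentrations, 96-well plates. TGI denotes the concentration required for complete inhibition of growth.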

Experiments:
Assay in all cases: inhibition of tumour cell growth, NCI panel, 48 h
SK-MEL-28 melanoma = test system: SK-MEL-28 melanoma
ACHN renal = test system: ACHN renal
U251 CNS = test system: U251 CNS
SF-539 CNS = test system: SF-539 CNS
HOP-62 NSCLC = test system: HOP-62 NSCLC
HL-60(TB) leukemia = test system: HL-60(TB) leukemia
M14 melanoma = test system: M14 melanoma
T-47D breast = test system: T-47D breast
NCI/ADR-RES ovarian = test system: NCI/ADR-RES ovarian
PC-3 prostate = test system: PC-3 prostate
MDA-N = test system: MDA-N

COc1ccc(-n2c(CCC(=O)O)nc3c2C(=O)c2ccccc2C3=O)cc1
TGI (SK-MEL-28 melanoma): > 100 µM
TGI (ACHN renal): > 100 µM
TGI (U251 CNS): > 100 µM
TGI (SF-539 CNS): > 100 µM
TGI (HOP-62 NSCLC): > 100 µM
TGI (HL-60(TB) leukemia): > 100 µM
TGI (M14 melanoma): > 100 µM
TGI (T-47D breast): > 100 µM
TGI (NCI/ADR-RES ovarian): > 100 µM
TGI (PC-3 prostate): > 100 µM
TGI (MDA-N): > 100 µM

CC1(C)C2CCC3CC(CCC#N)CCC3C21C#N (stereo unspecified)
TGI (SK-MEL-28 melanoma): > 100 µM
TGI (ACHN renal): > 100 µM
TGI (U251 CNS): > 100 µM
TGI (SF-539 CNS): > 100 µM
TGI (HOP-62 NSCLC): > 100 µM
TGI (HL-60(TB) leukemia): > 100 µM
TGI (M14 melanoma): > 100 µM
TGI (T-47D breast): > 100 µM
TGI (NCI/ADR-RES ovarian): > 100 µM
TGI (PC-3 prostate): > 100 µM
TGI (MDA-N): > 100 µM

CC(C)Oc1c(C2(c3ccccc3)SCCCS2)c(=O)c1=O
TGI (SK-MEL-28 melanoma): > 100 µM
TGI (ACHN renal): > 100 µM
TGI (U251 CNS): > 100 µM
TGI (SF-539 CNS): > 100 µM
TGI (HOP-62 NSCLC): > 100 µM
TGI (HL-60(TB) leukemia): > 100 µM
TGI (M14 melanoma): > 100 µM
TGI (T-47D breast): > 100 µM
TGI (NCI/ADR-RES ovarian): > 100 µM
TGI (PC-3 prostate): > 100 µM
TGI (MDA-N): > 100 µM

Cc1ccc(S(=O)c2cccs2)cc1 (stereo unspecified)
TGI (SK-MEL-28 melanoma): > 100 µM
TGI (ACHN renal): > 100 µM
TGI (U251 CNS): > 100 µM
TGI (SF-539 CNS): > 100 µM
TGI (HOP-62 NSCLC): > 100 µM
TGI (HL-60(TB) leukemia): > 100 µM
TGI (M14 melanoma): > 100 µM
TGI (T-47D breast): > 100 µM
TGI (NCI/ADR-RES ovarian): > 100 µM
TGI (PC-3 prostate): > 100 µM
TGI (MDA-N): > 100 µM

O=C1CCN2c3ccccc3[C@H]3Cc4cccc(c4[C@@H]2C3)CCO1
TGI (SK-MEL-28 melanoma): > 100 µM
TGI (ACHN renal): > 100 µM
TGI (U251 CNS): > 100 µM
TGI (SF-539 CNS): > 100 µM
TGI (HOP-62 NSCLC): > 100 µM
TGI (HL-60(TB) leukemia): 48.8 µM
TGI (M14 melanoma): 49.1 µM
TGI (T-47D breast): > 100 µM
TGI (NCI/ADR-RES ovarian): > 100 µM
TGI (PC-3 prostate): > 100 µM
TGI (MDA-N): 80.3 µM

CCOC(=O)C(NC(=O)OCc1ccccc1)C(=O)O (stereo unspecified)
TGI (SK-MEL-28 melanoma): > 100 µM
TGI (ACHN renal): > 100 µM
TGI (U251 CNS): > 100 µM
TGI (SF-539 CNS): > 100 µM
TGI (HOP-62 NSCLC): > 100 µM
TGI (HL-60(TB) leukemia): > 100 µM
TGI (M14 melanoma): > 100 µM
TGI (T-47D breast): > 100 µM
TGI (NCI/ADR-RES ovarian): > 100 µM
TGI (PC-3 prostate): > 100 µM
TGI (MDA-N): > 100 µM

CC1(C)CCN2C(=O)C34CCCC3CC21S4 (stereo unspecified)
TGI (SK-MEL-28 melanoma): > 100 µM
TGI (ACHN renal): > 100 µM
TGI (U251 CNS): > 100 µM
TGI (SF-539 CNS): > 100 µM
TGI (HOP-62 NSCLC): > 100 µM
TGI (HL-60(TB) leukemia): > 100 µM
TGI (M14 melanoma): > 100 µM
TGI (T-47D breast): > 100 µM
TGI (NCI/ADR-RES ovarian): > 100 µM
TGI (PC-3 prostate): > 100 µM
TGI (MDA-N): > 100 µM

C#CC[C@@H]1C(=O)N(Cc2ccc(OC)cc2)[C@@H](C(C)C)C(=O)N1Cc1ccc(OC)cc1
TGI (SK-MEL-28 melanoma): > 100 µM
TGI (ACHN renal): > 100 µM
TGI (U251 CNS): > 100 µM
TGI (SF-539 CNS): > 100 µM
TGI (HOP-62 NSCLC): > 100 µM
TGI (HL-60(TB) leukemia): 8.53 µM
TGI (M14 melanoma): > 100 µM
TGI (T-47D breast): 51.1 µM
TGI (NCI/ADR-RES ovarian): > 100 µM
TGI (PC-3 prostate): > 100 µM
TGI (MDA-N): 67.1 µM

CCC(NC(C)c1ccccc1)C(=O)c1ccc(OCc2ccccc2)c(OCc2ccccc2)c1 (stereo unspecified)
TGI (SK-MEL-28 melanoma): > 100 µM
TGI (ACHN renal): > 100 µM
TGI (U251 CNS): > 100 µM
TGI (SF-539 CNS): > 100 µM
TGI (HOP-62 NSCLC): > 100 µM
TGI (HL-60(TB) leukemia): > 100 µM
TGI (M14 melanoma): > 100 µM
TGI (T-47D breast): > 100 µM
TGI (NCI/ADR-RES ovarian): > 100 µM
TGI (PC-3 prostate): > 100 µM
TGI (MDA-N): > 100 µM

COC(=O)c1ccc2c(c1)CC1(C2)Cc2cc3c(cc2C1)CCC3
TGI (SK-MEL-28 melanoma): > 100 µM
TGI (ACHN renal): > 100 µM
TGI (U251 CNS): > 100 µM
TGI (SF-539 CNS): > 100 µM
TGI (HOP-62 NSCLC): > 100 µM
TGI (HL-60(TB) leukemia): > 100 µM
TGI (M14 melanoma): > 100 µM
TGI (T-47D breast): > 100 µM
TGI (NCI/ADR-RES ovarian): > 100 µM
TGI (PC-3 prostate): > 100 µM
TGI (MDA-N): > 100 µM

O[C@]12C=C(c3nccc4c3[nH]c3ccccc34)[C@@H]3CCN(CCCC/C=C\CC1)C[C@@]31CC3/C=C\CCCCN3[C@H]12 (stereo partly specified)
TGI (SK-MEL-28 melanoma): 2.76 µM
TGI (ACHN renal): 1.05 µM
TGI (U251 CNS): 1.79 µM
TGI (SF-539 CNS): 4.6 µM
TGI (HOP-62 NSCLC): 0.525 µM
TGI (HL-60(TB) leukemia): 1.08 µM
TGI (M14 melanoma): 0.896 µM
TGI (T-47D breast): 4.67 µM
TGI (NCI/ADR-RES ovarian): 4.16 µM
TGI (PC-3 prostate): 12 µM
TGI (MDA-N): 1.31 µM

CC1=NN(c2nc(N)nc(NS(=O)(=O)c3cc(C)c(Cl)cc3S)n2)C(C)(C)C1
TGI (SK-MEL-28 melanoma): > 10 µM
TGI (ACHN renal): > 10 µM
TGI (U251 CNS): > 10 µM
TGI (SF-539 CNS): > 10 µM
TGI (HOP-62 NSCLC): > 10 µM
TGI (HL-60(TB) leukemia): > 10 µM
TGI (M14 melanoma): > 10 µM
TGI (T-47D breast): > 10 µM
TGI (NCI/ADR-RES ovarian): > 10 µM
TGI (PC-3 prostate): > 10 µM
TGI (MDA-N): > 10 µM

CC1(C)OP(=O)(c2ccccc2)C=C1Sc1ccc([N+](=O)[O-])cc1[N+](=O)[O-] (stereo unspecified)
TGI (SK-MEL-28 melanoma): > 100 µM
TGI (ACHN renal): > 100 µM
TGI (U251 CNS): > 100 µM
TGI (SF-539 CNS): > 100 µM
TGI (HOP-62 NSCLC): > 100 µM
TGI (HL-60(TB) leukemia): 37.4 µM
TGI (M14 melanoma): > 100 µM
TGI (T-47D breast): > 100 µM
TGI (NCI/ADR-RES ovarian): > 100 µM
TGI (PC-3 prostate): > 100 µM
TGI (MDA-N): > 100 µM

Cc1cccc(C2ON=C(c3ccccc3)N2C23CC4CC(CC(C4)C2)C3)c1 (stereo unspecified)
TGI (SK-MEL-28 melanoma): > 10 µM
TGI (ACHN renal): > 10 µM
TGI (U251 CNS): > 10 µM
TGI (SF-539 CNS): > 10 µM
TGI (HOP-62 NSCLC): > 10 µM
TGI (HL-60(TB) leukemia): > 10 µM
TGI (M14 melanoma): > 10 µM
TGI (T-47D breast): > 10 µM
TGI (NCI/ADR-RES ovarian): > 10 µM
TGI (PC-3 prostate): > 10 µM
TGI (MDA-N): > 10 µM

CSc1ncnc2c1cnn2Cc1cnnn1COCC(O)CO (stereo unspecified)
TGI (SK-MEL-28 melanoma): > 100 µM
TGI (ACHN renal): > 100 µM
TGI (U251 CNS): > 100 µM
TGI (SF-539 CNS): > 100 µM
TGI (HOP-62 NSCLC): > 100 µM
TGI (HL-60(TB) leukemia): > 100 µM
TGI (M14 melanoma): > 100 µM
TGI (T-47D breast): > 100 µM
TGI (NCI/ADR-RES ovarian): > 100 µM
TGI (PC-3 prostate): > 100 µM
TGI (MDA-N): > 100 µM

C[C@]12C=CC(=O)C=C1CC[C@@H]1[C@@H]2CC[C@@]2(C)[C@H]1CC[C@]2(O)C(N)=O
TGI (SK-MEL-28 melanoma): > 100 µM
TGI (ACHN renal): > 100 µM
TGI (U251 CNS): > 100 µM
TGI (SF-539 CNS): > 100 µM
TGI (HOP-62 NSCLC): > 100 µM
TGI (HL-60(TB) leukemia): > 100 µM
TGI (M14 melanoma): > 100 µM
TGI (T-47D breast): > 100 µM
TGI (NCI/ADR-RES ovarian): > 100 µM
TGI (PC-3 prostate): > 100 µM
TGI (MDA-N): > 100 µM
